Reference: patent publication US9561228B2 (Celgene Avilomics Research, Inc., priority 2013, dated 2017)

Tests used:
[1] = test system: ERK1/2 phosphorylation of p90RSK in HT29 cells; experiment: pRSK MSD Assay in HT29 cells; format: cell-based; settings: Homo sapiens, HT-29, read-out: ERK1/ERK2 PRSK MSD HT29 EC50
How it was run: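 Serum-starved HT29 cells (0.1% FBS overnight) treated with test compound for 120 min at 37° C, then lysed with protease and phosphatase inhibitors. Phospho-p90RSK quantified by MSD sandwich immunoassay: RSK capture antibody, phospho-RSK detection antibody plus Sulfo-tagged antibody, electrochemiluminescence read.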

[2] = test system: HT-29 cells (colorectal adenocarcinoma); experiment: Inhibition of cancer cell proliferation, HT-29 (CellTiterGlo, 72 hours); format: cell-based; settings: Homo sapiens
How it was run: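 HT-29 cells seeded at 3000/well, then treated with 3-fold serial dilutions from a 5,000 nM two-fold solution in serum-free RPMI1640, untreated wells as control, for 72 h at 37° C. CellTiterGlo luminescence converted to cell number via a standard curve; GI50 from percent inhibition versus untreated growth.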

ERK1/ERK2 = experiment: Measurement of Erk occupancy with biotinylated covalent probe I-299 (HT-29); format: cell-based; settings: HT-29 cells
Method: Measurement of Erk Occupancy with Biotinylated Covalent Probe
This experiment measured occupancy of the ERK1/ERK2 target by compounds according to the invention. This experiment was conducted using the Mesoscale Discovery test kit (Cat. # N45107B). One day before the assay, cells were split and added at 50,000 cells per well to a flat-bottom 96 well plate in 200 μl of growth medium. The next day, the medium was discarded, 100 μl medium containing test compound was added, and the plate was incubated at 37° C. for 120 minutes. The plate was rinsed once with PBS, and 50 μl lysis buffer with test compound was added. The plate was incubated at 4° C. for 30 min, and 30 μl of lysate was transferred to a plate to capture total and phosphor-Erk. Biotinylated probe 1-299 was diluted in lysis buffer and added to each well to a final concentration of 0.2 μM. The plate was incubated for 2 hr under constant shaking at room temperature. The plate was washed 3 times with MSD wash buffer. To detect the biotinylated probe bonding, tagged streptavidin was added (Mesoscale Discovery, Cat. # R32AD-1) at 1 μg/ml, 25 μl/well, followed by a 60 min incubation under shaking. The plate was washed 3 times, 150 μl MSD Read Buffer (Mesoscale Discovery, Cat. R61TX) was added and the plate was read in a plate reader manufactured by MSD. Percent occupancy by test compound at Erk was calculated by comparing the chemiluminescence readings from treated cells as compared to the chemiluminescence readings in untreated controls (which are defined as 100% probe bonding or 0% test compound occupancy). The amount of covalent probe signal divided by the amount of ERK signal for samples with no test compound treatment represents the maximum probe signal (MPS). In samples treated with test compound prior to covalent probe, the ratio of probe signal to ERK signal (the test probe signal, TPS) was reduced by the degree of target occupancy by the test compound which blocks covalent probe binding. The difference between the MPS and the TPS, divided by the MPS gave the target occupancy by the test compound. This ratio was then expressed as a percent occupancy. Results from this assay are provided in Table A below under the column “Occupancy EC50 (nM) HT-29.”

Erk1 = biological target: T1, Erk1 (Homo sapiens, UniProt P27361); experiment: Protein Mass Modification Assay (intact protein MALDI, 60 min, 10-fold excess of compound); format: binding
T1 construct: purchased Millipore 14-439
T1 sequence (P27361 whole entry): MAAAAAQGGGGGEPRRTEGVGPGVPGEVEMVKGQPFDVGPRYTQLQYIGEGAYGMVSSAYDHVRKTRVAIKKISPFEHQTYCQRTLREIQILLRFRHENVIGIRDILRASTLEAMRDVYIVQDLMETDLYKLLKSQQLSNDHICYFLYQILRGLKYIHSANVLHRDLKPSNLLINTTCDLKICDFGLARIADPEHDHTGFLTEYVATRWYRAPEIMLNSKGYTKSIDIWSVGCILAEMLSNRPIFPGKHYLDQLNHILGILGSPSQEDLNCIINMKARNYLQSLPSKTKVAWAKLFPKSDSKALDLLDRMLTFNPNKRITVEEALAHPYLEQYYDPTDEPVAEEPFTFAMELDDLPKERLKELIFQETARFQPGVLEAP
How it was run: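 Human Erk1 was incubated 60 min at room temperature with a 10-fold molar excess of compound, then analysed as intact protein by MALDI with sinapinic acid matrix. The centroid mass shift versus untreated protein was divided by compound molecular weight to give percent modified protein.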

[3] = test system: A375 cells (malignant melanoma); experiment: Inhibition of cancer cell proliferation, A375 (CellTiterGlo, 72 hours); format: cell-based; settings: Homo sapiens, A-375
How it was run: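 A375 melanoma cells, 3000/well, exposed 72 h at 37 °C to compound in 3-fold serial dilutions (solution added as 2× stock starting at 5,000 nM in serum-free DMEM). CellTiterGlo luminescence converted to cell number via standard curve; % inhibition vs untreated control, GI50 from curve fit.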

[4] = test system: ERK1/2 phosphorylation of p90RSK (pRSK); experiment: Duration of action after washout: p-RSK inhibition at 6 hr; format: cell-based; settings: 6 hr after washout
Method: Measurement of Duration of Action of Test Compounds
One day before the assay, the cells were split and added at 50,000 cells per well in flat-bottom 96 well plate in 200 μl of growth media. The next day, the medium was discarded, 100 μl medium containing test compounds was added, and the plate was incubated at 37° C. for 120 minutes. The medium was discarded, and the cells were rinsed 3 times with PBS followed by addition of 200 μl of fresh grow medium. The plate was returned to a 37° C. incubator, and separate cell lysates were made using MSD lysis buffer after 0.25, 0.5, 1, 2, 4, 6, 8 and 18 or 24 hours. Thereafter, pRSK was measured as described above in the section entitled pRSK MSD Assay.

[5] = test system: ERK1/2 phosphorylation of p90RSK in A375 cells; experiment: Detection of total and phosphor-RSK by MSD ELISA (A375); format: cell-based; settings: Homo sapiens, A-375, read-out: ERK1/ERK2 PRSK A375 EC50
How it was run: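 A375 cells serum-starved overnight in DMEM/0.1% FBS, then treated 2 h at 37° C with compound (1000× DMSO dilutions into medium). Lysates captured on RSK antibody-coated MSD plates; phospho-RSK (Ser380) and total RSK detected with SulfoTag secondary antibodies by electrochemiluminescence.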

[6] = test system: HCT116 cells (colorectal carcinoma); experiment: Inhibition of cancer cell proliferation, HCT116 (CellTiterGlo, 72 hours); format: cell-based; settings: Homo sapiens, HCT-116
Method: Measurement of Inhibition of Cancer Cell Proliferation (HCT116/Colorectal Carcinoma)
The following protocol used a HCT116 cell line, which cell line is a model for colorectal carcinoma. HCT116 cells were split and 3000 cells in 100 μl of growth medium were added per well of a flat-bottom 96-well plate. A two-fold test compound solution in serum-free RPM1640 was made, starting at 5,000 nM. Then, 3-fold serial dilutions were made across the plate from well 1 to well 11. Well 12, the last well in a row on the plate, was left as untreated control. 100 μl compound solutions were then transferred to the wells, so the total volume of media was 200 μl per well. Plates were returned to a 37° C. incubator, and the cells were cultured for 72 hours. To measure cell proliferation after 72 hours, media was discarded from the plates, 50 μl/well of fresh medium was added, and 50 μl CellTiterGlo solution was added (Promega Cat#G7573). The plate was covered with a dark lid and incubated for 10 min. A white sealing tape was applied to the bottom of the plate, and the plate was read in a luminescence plate reader. […] 50 μl CellTiterGlo was added per well, and the plate was read in a luminescence plate reader after 10 min. The reading was plotted vs. cell number to generate a standard curve and the equation of the curve fit. The compound-treated sample luminescence readings were converted to cell numbers using the curve-fit equation. The percent of inhibition, using untreated control as 100% growth, was then calculated. GI50 was then calculated by GraphPad Prism.

MEK1 activated ERK1 = biological target: T2, MEK1 activated ERK1 (Homo sapiens, UniProt P27361); experiment: Omnia continuous-read kinase assay for potency against MEK1 activated ERK1; format: biochemical; settings: MEK1 activated ERK1, ATP at KM; read-out: ERK1 Omnia WT ATP KM IC50
T2 construct: purchased Millipore (Billerica, Mass.) 14-439-K
T2 sequence (P27361 whole entry): as above
How it was run: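 Apparent IC50 came from initial reaction slopes (RFU vs time) plotted against log inhibitor with a variable-slope fit. Reactions were started with ERK1 (4 nM final) added to 50 μM ATP, roughly at its appKM, and 10 μM Sox-conjugated ST17 peptide in 20 mM Tris pH 7.5, 5 mM MgCl2. Fluorescence was monitored every 71 seconds.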

Row | SMILES | EC50 [1] [µM] | GI50 [2] [µM] | EC50 (ERK1/ERK2) [µM] | ERK1 Mass Mod (%) (Erk1) | GI50 [3] [µM] | p-RSK inhibition at 6 hr (%) [4] | EC50 [5] [µM] | GI50 [6] [µM] | IC50 (MEK1 activated ERK1) [µM]
1 | C=CC(=O)Nc1ccccc1Nc1nc(Nc2cc(C(N)=O)ccc2C)ncc1Cl [Compound I-319, 3-(4-(2-acrylamidophenylamino)-5-chloropyrimidin-2-ylamino)-4-methylbenzamide] | < 0.1 | 0.101 to 0.5 | < 0.1 | – | – | – | – | – | –
2 | C=CC(=O)Nc1cc(F)ccc1Nc1nc(Nc2ccc(F)cc2C)ncc1Cl [Compound I-212, N-(2-((5-chloro-2-((4-fluoro-2-methylphenyl)amino)pyrimidin-4-yl)amino)-5-fluorophenyl)acrylamide] | < 0.1 | 0.101 to 0.5 | < 0.1 | F (a mass modification of 31-69%) | – | – | – | – | –
3 | C=CC(=O)Nc1ccccc1Nc1nc(NC2CCCC(C(N)=O)C2)ncc1Cl (racemic) [Compound I-102] | < 0.1 | 0.101 to 0.5 | < 0.1 | E (a mass modification of ≧70%) | – | – | – | – | –
4 | C=CC(=O)Nc1ccccc1Nc1nc(N[C@H]2CCCN(C(=O)CO)C2)ncc1C(F)(F)F [Compound I-15, (S)—N-(2-((2-((1-(2-hydroxyacetyl)piperidin-3-yl)amino)-5-(trifluoromethyl)pyrimidin-4-yl)amino)phenyl)acrylamide] | – | < 0.1 | – | – | < 0.1 | E (a p-RSK inhibition percent of ≧70%) | < 0.1 | < 0.1 | –
5 | C=CC(=O)Nc1cc(F)ccc1Nc1nc(Nc2cc(C(N)=O)ccc2C)ncc1Cl [Compound I-206, 3-((4-((2-acrylamido-4-fluorophenyl)amino)-5-chloropyrimidin-2-yl)amino)-4-methylbenzamide] | 0.101 to 0.5 | < 0.1 | < 0.1 | – | – | – | – | – | –
6 | C=CC(=O)Nc1ccccc1Nc1nc(Nc2cc(C(N)=O)c(F)cc2C)ncc1Cl [Compound I-214, 5-((4-((2-acrylamidophenyl)amino)-5-chloropyrimidin-2-yl)amino)-2-fluoro-4-methylbenzamide] | < 0.1 | < 0.1 | < 0.1 | – | – | – | – | – | –
7 | C=CC(=O)Nc1ccccc1Nc1nc(N[C@@H]2CCC[C@H](C(N)=O)C2)ncc1C(F)(F)F (racemic) [Compound I-2, Rac-cis-3-((4-((2-acrylamidophenyl)amino)-5-(trifluoromethyl)pyrimidin-2-yl)amino)cyclohexanecarboxamide] | < 0.1 | 0.101 to 0.5 | < 0.1 | E (a mass modification of ≧70%) | – | – | – | – | < 0.1
8 | C=CC(=O)Nc1ccccc1Nc1nc(Nc2cc(S(N)(=O)=O)ccc2C)ncc1Cl [Compound I-205, N-(2-((5-chloro-2-((2-methyl-5-sulfamoylphenyl)amino)pyrimidin-4-yl)amino)phenyl)acrylamide] | < 0.1 | < 0.1 | < 0.1 | – | – | – | – | – | –
9 | C=CC(=O)Nc1ccccc1Nc1nc(Nc2cc(CO)c(F)cc2C)ncc1C(F)(F)F [Compound I-77, N-(2-((2-((4-Fluoro-5-(hydroxymethyl)-2-methylphenyl)amino)-5-(trifluoromethyl)pyrimidin-4-yl)amino)phenyl)acrylamide] | 0.101 to 0.5 | < 0.1 | < 0.1 | – | 0.101 to 0.5 | – | – | 0.101 to 0.5 | –
10 | C=CC(=O)Nc1ccccc1Nc1nc(Nc2cc(C(N)=O)c(F)cc2C)ncc1C(F)(F)F [Compound I-76, 5-((4-((2-Acrylamidophenyl)amino)-5-(trifluoromethyl)pyrimidin-2-yl)amino)-2-fluoro-4-methylbenzamide] | 0.501 to 0.999 | < 0.1 | < 0.1 | – | 0.101 to 0.5 | – | – | – | –
11 | C=CC(=O)Nc1ccccc1Nc1nc(Nc2ccc(F)cc2C#N)ncc1Cl [Compound I-211, N-(2-((5-chloro-2-((2-cyano-4-fluorophenyl)amino)pyrimidin-4-yl)amino)phenyl)acrylamide] | < 0.1 | 0.101 to 0.5 | < 0.1 | – | – | – | – | – | –
